# Measured values: US20070178439A1, “Control of es cell self renewal and lineage specification, and medium therefor” (priority 2003, published 2007)
# “Also recorded” adds a separate entry of the source.
# B1: BMP4: BMP receptor ligand, agonist of the TGF-β superfamily signalling pathway (protein, UniProt P12644 293-408, looked up)
# Bone morphogenetic protein 4: SPKHHSQRARKKNKNCRRHSLYVDFSDVGWNDWIVAPPGYQAFYCHGDCPFPLADHLNSTNHAIVQTLVNSVNSSIPKACCVPTELSAISMLYLDEYDKVVLKNYQEMVVEGCGCR
# B2: GDF-6: BMP relative growth and differentiation factor-6 (protein, UniProt Q6KF10 336-455, looked up)
# Growth/differentiation factor …: TAFASRHGKRHGKKSRLRCSKKPLHVNFKELGWDDWIIAPLEYEAYHCEGVCDFPLRSHLEPTNHAIIQTLMNSMDPGSTPPSCCVPTKLTPISILYIDAGNNVVYKQYEDMVVESCGCR
# What was measured:
# Assay type in all cases: cell-based, mouse
# ES cells = experiment: ES cell self-renewal versus differentiation in serum-free N2B27 adherent culture with passaging; conditions: for ES cell self-renewal / differentiation: N2B27 serum-free, factor(s) as labelled; for ES cell self-renewal with TGF-β superfamily ligand or other factor in place of BMP4: N2B27, in the presence of LIF
# Experimental: (§1) ES cells were maintained without feeder cells. For serum-free culture, ES cells were plated onto gelatin-coated plates in N2B27 medium (Ying and Smith, 2003) supplemented with 10 ng/ml LIF (Sigma) and 10 ng/ml BMP4 or 200 ng/ml GDF6 (R&D Systems). Cells were passaged every 2-4 days using either enzyme-free Cell Dissociation Buffer (Invitrogen) or 0.025% trypsin/1% chicken serum. Dissociated cells were harvested in N2B27 and pelleted. Supernatant was aspirated and the cell pellet resuspended in N2B27 and replated directly. For single cell cloning, a finely drawn Pasteur pipette pre-loaded with N2B27 was used to pick individual cells into 10 μl drops. Drops were then singly transferred to 96-well plates pre-loaded with 150 μl N2B27 per well with LIF or LIF plus BMP4. After 8 days, ES cell colonies were identified and passaged. To produce chimaeras, ES cells were injected into C57Bl/6 blastocysts. Germline transmission was tested by mating male chimaeras with C57Bl/6 females.
# Id1 Transfectants = experiment: Propagation of single ES cells in serum-free medium (single cell cloning), Id1 transfectants
# From the text: Under these conditions the transfectants were not overtly different from parental ES cells or empty vector transfectants. In contrast, in serum-free N2B27, Id transfectants whilst remaining LIF-dependent, were liberated from requirement for BMP. These cells proliferated in LIF alone as rapidly and with as little differentiation as parental ES cells in LIF plus BMP. The cultures could be passaged multiple times with no change in undifferentiated morphology or factor dependence. The ES cell phenotype was confirmed by expression of Oct4 and Nanog mRNAs (FIG. 4D). As a rigorous test of the capacity of Id expression to substitute for serum or BMP/GDF, we plated single cells in N2B27.
# as §1
# Id genes = experiment: Gene induction in Oct4-selected ES cells (LightCycler RT-PCR, Northern hybridisation); conditions: overnight in N2B27, then stimulated 45 minutes
# Experimental: (§2) Oct4GiP ES cells (Ying et al., 2002) were cultured in the presence of puromycin for 4-6 days to eliminate differentiated cells. Purified ES cells were cultured in complete medium plus LIF for 24 hours then washed once with PBS and transferred to N2B27 medium overnight prior to stimulation for 45 min. with 20 ng/ml LIF, 50 ng/ml BMP4, LIF plus BMP4, 10 ng/ml TGF-β1 (all R&D Systems) or 15% FCS. Quantitative RT-PCR was carried out using the LightCycler Instrument (Roche). Data were normalised relative to Oct4 amplification. Primer pairs and reaction conditions are available upon request. Northern hybridizations were carried out on 5 μg aliquots of total RNA.
# [1] = test system: blastocysts / inner cell masses; experiment: Derivation of ES cells from blastocysts in serum free medium; conditions: ICM dissociated after 4 days of blastocyst culture in LIF only, BMP4 added on replating
# From the text: We investigated whether the response to BMP may be an adaptation of established ES cells to culture or is manifest during the initial stages of ES cell derivation. We plated blastocysts in N2B27 supplemented with BMP plus LIF. After several days expanded inner cell masses (ICMs) were dissociated and replated in the same culture conditions. […] Therefore we subsequently dissociated the ICM after only 4 days of blastocyst culture in LIF only and added BMP4 on replating. […] These could be passaged and expanded as morphologically undifferentiated ES cells. One line (SF1) was characterised further. Upon withdrawal of LIF and BMP, SF1 ES cells underwent neural differentiation in vitro. Moreover, SF1 cells produced extensively chimaeric mice (FIG. 2F). Twelve chimaeras were all male, indicative of sex conversion by highly contributing XY ES cells (Bradley et al., 1984).
# Strain 129 mice were ovariectomised on the third day of pregnancy and embryos in diapause flushed 4 days later (Nichols et al., 1990). Intact blastocysts were plated on gelatin-coated plastic in N2B27 supplemented with LIF (10 ng/ml). After 3-6 days the central mass of each explant was picked, rinsed in PBS and placed in a drop of trypsin for a few minutes. […]
# [2] = test system: p38 and erk mitogen-activated protein kinases; experiment: Immunoblot of p38 and erk activation in undifferentiated ES cells
# Experimental: (§3) Pre-selected Oct4GiP ES cells were transferred to N2B27 medium overnight prior to stimulation with LIF (20 ng/ml), BMP4 (50 ng/ml) or LIF plus BMP4 for 15 min or 1 hour. Phosphorylated stat3, smad1, erk1/2 and p38 were detected by immunoblotting (Cell Signaling Technology). Cell lysis and immunoprecipitation (Nakashima et al., 1997) employed anti-FLAG (Sigma) or anti-Stat3 (Transduction Labs). Immunostaining was performed as described (Ying et al., 2003)
# [3] = test system: tis11, c-fos, junB, socs3; experiment: Induction of known LIF target genes in Oct-selected ES cells (real time RT-PCR); conditions: 45 min stimulation
# Experimental: as §2
# STAT3 = experiment: Immunoblot of STAT3 tyrosine 705 phosphorylation in ES cells
# Experimental: as §3
# Smad1 = experiment: Immunoblot of active serine phosphorylated Smad1 in undifferentiated ES cells; conditions: 15 min or 1 hour stimulation
# Experimental: as §3
# [4] = Id1 transfectants, single cells, N2B27 serum-free
molecule,measurement,setting,value
"C[S+]([O-])c1ccc(-c2nc(-c3ccncc3)c(-c3ccc(F)cc3)[nH]2)cc1 (stereo not drawn) [SB203580, reference compound]",Effect of p38 inhibitor on balance of self-renewal and neural differentiation in LIF only,"ES cells; 30 μM, N2B27",does not suppress; also recorded: did not alter the balance between self-renewal and neural differentiation
same,Effect of p38 inhibitor on self-renewal in LIF plus BMP,"ES cells; 30 μM, N2B27",does not suppress; also recorded: no noticeable effect
same,Overall cell viability in LIF only,ES cells; N2B27,appeared to enhance overall cell viability
"LIF: gp130 receptor binding cytokine, Leukaemia Inhibitory Factor",ES cell self-renewal / differentiation,ES cells,reduces but does not eliminate neural differentiation
same,Passages after which number of undifferentiated ES cells began to decline,ES cells; successive passaging in N2B27,2-3 passages
same,Number of colonies expanded,Id1 Transfectants; [4],16
same,Number of colonies formed at day 8,Id1 Transfectants; [4],19
same,Frequency of undifferentiated passageable colony formation from single cells,"Id1 Transfectants; Id transfectants, N2B27",10%
"TGF-β1: TGF-β superfamily member, not a BMP receptor ligand",ES cell self-renewal with TGF-β superfamily ligand or other factor in place of BMP4,ES cells,no discernible effect on ES cells
same,"Id gene (Id1, Id2, Id3) mRNA induction",Id genes,Neither activin (data not shown) nor TGF-β1 induce Id gene expression
activin,ES cell self-renewal with TGF-β superfamily ligand or other factor in place of BMP4,ES cells,increased viability and/or proliferation but did not suppress differentiation
same,"Id gene (Id1, Id2, Id3) mRNA induction",Id genes,Neither activin (data not shown) nor TGF-β1 induce Id gene expression
fibronectin,Passages over which undifferentiated Oct4-GiP cells could be expanded,"ES cells; N2B27, in combination with LIF",at least 10 passages
same,ES cell self-renewal with TGF-β superfamily ligand or other factor in place of BMP4,ES cells,more differentiation and slower population expansion than in BMP
same,"Id gene (Id1, Id2, Id3) mRNA induction",Id genes,"induced by foetal calf serum and by fibronectin, although to a lesser extent than by BMP"
B1,ES cell self-renewal / differentiation,ES cells,differentiation into sheets of flattened epithelial-like cells
same,"Id gene (Id1, Id2, Id3) mRNA induction",Id genes,strongly induced
same,Formation of primary ES cell colonies,[1],primary ES cell colonies did form
same,Erk activation in response to LIF in presence of BMP,[2]; LIF plus BMP,not appreciably inhibited
same,Activation of p38 and erk,"[2]; undifferentiated ES cells, 15 min or 1 hour stimulation","enhances the basal activation of p38 and, by one hour, of erk"
same,Induction of junB and socs3 mRNA,[3],more highly induced by LIF in the presence of BMP
same,Induction of tis11 and c-fos mRNA,[3],showed no response to BMP
same,STAT3 activation (phosphorylation of tyrosine 705),STAT3; BMP alone,does not activate STAT3
same,STAT3 activation by LIF in presence of BMP,STAT3; LIF plus BMP,Nor does it increase STAT3 activation by LIF
same,Phosphorylation of Smad1,Smad1,Increased phosphorylation of Smad1
B2,ES cell self-renewal with TGF-β superfamily ligand or other factor in place of BMP4,ES cells,similarly supported ES cell self-renewal
same,"Id gene (Id1, Id2, Id3) mRNA induction",Id genes,strongly induced
